The values that follow are results of earlier work, collected in patent publication US11298425B2, “Delivery of a chemotherapy agent across the blood-brain barrier” (ROWLESBIOMED, LLC, priority 2018, dated 2022).

The conditions of series [1]: mice.
For series [2] the following is noted: pigs.
For series [3] the following is noted: rats.
For series [4] the following is noted: humans, measured in the tissues of human cadavers.

Where two headings read alike, the source gives them in different places.

As for `CCCCCc1cc(O)c2c(c1)OC(C)(C)[C@@H]1CCC(C)=C[C@@H]21` [THC, tetrahydrocannabinol], the brain-to-blood ratio in series [1] is listed as 1.6; in series [2], 2.6; in series [3], 2.0; in series [4], 3.0.

Take `CCCc1cc(O)c2c(c1)OC(C)(C)[C@@H]1CCC(C)=C[C@@H]21` [THCV, tetrahydrocannabivarin]: the brain-to-blood ratio entry in series [1] is recorded as “even higher than THC”.
